Experiments:
Assay type in all cases: cell-based, Human
[1] = test system: stromal cell line HS-5; test: microRNA and mRNA array, treated stromal HS-5 cells; settings: Compound D 2 uM, 37° C., 6 hours
Description: (§1) The Human miRNome Complete RT^2 miRNA PCR Array profiles the expression of the 752 most abundantly expressed and best characterized microRNA (miRNA) sequences in the Human miRNA genome (miRNome), as annotated by the Sanger miRBase Release 14.
(§2) The Illumina Gene Expression Beadchip content provides genome-wide transcriptional coverage of well-characterized genes, gene candidates, and splice variants. Each array on the BeadChip targets more than 47,000 probes derived from the National Center for Biotechnology Information Reference Sequence (NCBI) RefSeq Release 38 (Nov. 7, 2009) and other sources.
(§3) Compound D was incubated with a multiple myeloma cell line (MM.1S or RPMI8226) or a stromal cell line (HS-5) at 37° C. for 6 hours. The concentration of Compound D was 2 uM.
(§4) Total RNA was extracted from the treated cells (e.g., MM.1S cells and RPMI8226 cells) and analyzed using microRNA array.
(§5) The numbers shown are normalized to the expression level of the corresponding biomarker in control cells. For example, the expression level of biomarker hsa-miR-346 was 0.26, which means that the expression level of this biomarker in treated MM.1S cells was 26% of the expression level of this biomarker in MM.1S control cells. Conversely, the expression level of biomarker hsa-miR-145 was 3.09, which means that the expression level of this biomarker in treated MM.1S cells was 3.09 fold of the expression level of this biomarker in MM.1S control cells.

[2] = test system: multiple myeloma cell line MM.1S; test: microRNA and mRNA array, treated MM.1S cells; settings: 37° C., 6 hours
Description: The Human miRNome Complete RT^2 miRNA PCR Array profiles the expression of the 752 most abundantly expressed and best characterized microRNA (miRNA) sequences in the Human miRNA genome (miRNome), as annotated by the Sanger miRBase Release 14. The Illumina Gene Expression Beadchip content provides genome-wide transcriptional coverage of well-characterized genes, gene candidates, and splice variants. Each array on the BeadChip targets more than 47,000 probes derived from the National Center for Biotechnology Information Reference Sequence (NCBI) RefSeq Release 38 (Nov. 7, 2009) and other sources. Compound D was incubated with a multiple myeloma cell line (MM.1S or RPMI8226) or a stromal cell line (HS-5) at 37° C. for 6 hours. The concentration of Compound D was 2 uM. Alternatively, Compound A was incubated with the multiple myeloma cell line MM.1S at 37° C. for 6 hours. Total RNA was extracted from the treated cells (e.g., MM.1S cells and RPMI8226 cells) and analyzed using microRNA array. […] The numbers shown are normalized to the expression level of the corresponding biomarker in control cells. For example, the expression level of biomarker hsa-miR-346 was 0.26, which means that the expression level of this biomarker in treated MM.1S cells was 26% of the expression level of this biomarker in MM.1S control cells. Conversely, the expression level of biomarker hsa-miR-145 was 3.09, which means that the expression level of this biomarker in treated MM.1S cells was 3.09 fold of the expression level of this biomarker in MM.1S control cells.

[3] = test system: multiple myeloma cell line RPMI8226; test: microRNA and mRNA array, treated RPMI8226 cells; settings: RPMI-8226 cells, Compound D 2 uM, 37° C., 6 hours
Description: as §1, §2, §3, §4, §5

[4] = Compound A (concentration not given)

Structure (SMILES): O=C(NO)c1cnc(NC2(c3ccccc3)CC2)nc1 [Compound D, N-hydroxy-2-((1-phenylcyclopropyl)amino)pyrimidine-5-carboxamide]
- HIF-1a expression level in treated cells as % of the expression level in control cells [1]: 49%
- PTPRU expression level in treated cells, fold of the expression level in control cells [1]: 2.52 fold
- expression of mRNA SEQ ID NO: 24 (HIF-1a) normalized to control cells [1]: 0.49
- expression of mRNA SEQ ID NO: 25 (PTPRU) normalized to control cells [1]: 2.52
- expression of miRNA SEQ ID NO: 10 normalized to control cells [1]: 0.26
- expression of miRNA SEQ ID NO: 11 normalized to control cells [1]: 0.15
- expression of miRNA SEQ ID NO: 19 normalized to control cells [1]: 6.64
- expression of miRNA SEQ ID NO: 20 normalized to control cells [1]: 21.71
- expression of miRNA SEQ ID NO: 21 normalized to control cells [1]: 54.35
- expression of miRNA SEQ ID NO: 22 normalized to control cells [1]: 5.95
- expression of miRNA SEQ ID NO: 23 normalized to control cells [1]: 3.52
- expression of miRNA SEQ ID NO: 1 (hsa-miR-346) normalized to control cells ([2]; Compound D 2 uM): 0.26
- expression of miRNA SEQ ID NO: 2 normalized to control cells ([2]; Compound D 2 uM): 0.33
- expression of miRNA SEQ ID NO: 3 normalized to control cells ([2]; Compound D 2 uM): 0.23
- expression of miRNA SEQ ID NO: 4 normalized to control cells ([2]; Compound D 2 uM): 0.27
- expression of miRNA SEQ ID NO: 5 normalized to control cells ([2]; Compound D 2 uM): 0.31
- expression of miRNA SEQ ID NO: 12 (hsa-miR-145) normalized to control cells ([2]; Compound D 2 uM): 3.09
- expression of miRNA SEQ ID NO: 13 normalized to control cells ([2]; Compound D 2 uM): 3.53
- expression of miRNA SEQ ID NO: 14 normalized to control cells ([2]; Compound D 2 uM): 3.19
- expression of miRNA SEQ ID NO: 15 normalized to control cells ([2]; Compound D 2 uM): 3.29
- expression of miRNA SEQ ID NO: 16 normalized to control cells ([2]; Compound D 2 uM): 4.68
- expression of small non-coding RNA SEQ ID NO: 26 normalized to control cells ([2]; Compound D 2 uM): 0.46
- expression of small non-coding RNA SEQ ID NO: 27 normalized to control cells ([2]; Compound D 2 uM): 0.45
- expression of miRNA SEQ ID NO: 2 normalized to control cells [3]: 0.09
- expression of miRNA SEQ ID NO: 6 normalized to control cells [3]: 0.28
- expression of miRNA SEQ ID NO: 7 normalized to control cells [3]: 0.25
- expression of miRNA SEQ ID NO: 8 normalized to control cells [3]: 0.33
- expression of miRNA SEQ ID NO: 9 normalized to control cells [3]: 0.24
- expression of miRNA SEQ ID NO: 17 normalized to control cells [3]: 3.22
- expression of miRNA SEQ ID NO: 18 normalized to control cells [3]: 3.31

Structure (SMILES): O=C(CCCCCCNC(=O)c1cnc(N(c2ccccc2)c2ccccc2)nc1)NO [Compound A, 2-(diphenylamino)-N-(7-(hydroxyamino)-7-oxoheptyl) pyrimidine-5-carboxamide]
- expression of small non-coding RNA SEQ ID NO: 26 normalized to control cells [2, 4]: 0.74
- expression of small non-coding RNA SEQ ID NO: 27 normalized to control cells [2, 4]: 0.74

Reference: patent publication US20200405716A1, “HISTONE DEACETYLASE 6 (HDAC6) BIOMARKERS IN MULTIPLE MYELOMA” (Acetylon Pharmaceuticals, Inc., priority 2013, published 2020)
